Laboratory results from ChEMBL document CHEMBL1201862, “PubChem BioAssay data set” (2004).
Where a name gives a salt, the structure may show the parent alone. Activity calls are given as the source filed them.

Key:
[1] = molecular target: T1, DNA repair protein RAD52 homolog (Homo sapiens, UniProt P43351); format: functional, biochemical
T1 sequence (P43351 whole entry): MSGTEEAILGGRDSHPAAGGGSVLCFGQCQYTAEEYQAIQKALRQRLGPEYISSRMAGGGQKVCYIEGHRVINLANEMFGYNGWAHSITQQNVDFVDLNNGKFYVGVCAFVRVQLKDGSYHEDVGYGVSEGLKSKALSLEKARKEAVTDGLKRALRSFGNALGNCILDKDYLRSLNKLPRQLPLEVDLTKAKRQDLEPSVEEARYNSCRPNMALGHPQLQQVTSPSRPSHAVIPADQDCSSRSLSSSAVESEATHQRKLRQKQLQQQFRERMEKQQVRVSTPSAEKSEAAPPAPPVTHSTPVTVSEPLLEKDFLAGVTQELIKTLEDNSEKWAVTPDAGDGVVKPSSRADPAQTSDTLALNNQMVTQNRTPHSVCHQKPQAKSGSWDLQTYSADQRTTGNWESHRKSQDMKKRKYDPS

[2] = molecular target: T2, Protein skinhead-1 (Caenorhabditis elegans, UniProt P34707); format: functional
T2 sequence (P34707 whole entry): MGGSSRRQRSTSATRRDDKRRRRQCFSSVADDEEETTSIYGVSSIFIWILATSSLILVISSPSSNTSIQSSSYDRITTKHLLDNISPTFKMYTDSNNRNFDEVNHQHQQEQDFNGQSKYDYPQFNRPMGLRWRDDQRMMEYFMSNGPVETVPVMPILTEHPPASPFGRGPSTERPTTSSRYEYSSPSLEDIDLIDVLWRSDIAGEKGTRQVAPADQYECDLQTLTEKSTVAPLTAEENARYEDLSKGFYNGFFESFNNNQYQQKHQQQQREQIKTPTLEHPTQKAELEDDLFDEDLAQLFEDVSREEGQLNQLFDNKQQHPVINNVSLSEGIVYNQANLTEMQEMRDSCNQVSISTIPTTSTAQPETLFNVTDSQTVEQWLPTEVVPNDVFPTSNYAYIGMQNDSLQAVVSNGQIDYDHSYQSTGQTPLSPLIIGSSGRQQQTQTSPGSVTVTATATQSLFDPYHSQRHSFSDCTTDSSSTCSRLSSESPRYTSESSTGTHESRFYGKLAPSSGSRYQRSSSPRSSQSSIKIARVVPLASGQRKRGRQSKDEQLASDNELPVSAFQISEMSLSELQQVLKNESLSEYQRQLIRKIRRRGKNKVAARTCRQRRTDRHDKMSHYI

[3] = molecular target: T3, Rac GTPase-activating protein 1 (Homo sapiens, UniProt Q9H0H5); assay: MgcRacGAP GTPase-activating activity inhibitors, confirmation, biochemical, ADP Hunter fluorescence, primary and confirmatory (AID 624330); format: functional
T3 sequence (Q9H0H5 whole entry): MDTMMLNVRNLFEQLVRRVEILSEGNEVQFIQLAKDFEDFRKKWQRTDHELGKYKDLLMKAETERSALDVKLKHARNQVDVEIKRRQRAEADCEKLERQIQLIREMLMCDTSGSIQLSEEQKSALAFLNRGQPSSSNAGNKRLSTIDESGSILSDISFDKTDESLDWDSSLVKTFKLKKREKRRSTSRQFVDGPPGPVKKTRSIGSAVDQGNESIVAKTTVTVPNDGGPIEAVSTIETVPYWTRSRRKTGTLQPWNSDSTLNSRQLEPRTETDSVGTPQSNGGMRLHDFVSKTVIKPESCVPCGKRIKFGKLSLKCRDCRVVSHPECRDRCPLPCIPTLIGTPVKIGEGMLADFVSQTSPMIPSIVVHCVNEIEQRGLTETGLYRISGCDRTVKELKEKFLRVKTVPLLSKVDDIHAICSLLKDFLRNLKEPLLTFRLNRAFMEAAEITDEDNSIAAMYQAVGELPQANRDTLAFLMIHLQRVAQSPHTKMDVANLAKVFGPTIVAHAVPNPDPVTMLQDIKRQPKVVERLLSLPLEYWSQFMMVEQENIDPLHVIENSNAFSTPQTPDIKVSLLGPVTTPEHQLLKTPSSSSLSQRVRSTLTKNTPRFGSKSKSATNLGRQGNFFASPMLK

[4] = C. albicans growth with fluconazole, confirmation, fluorescence, retest (AID 2467); format: functional, cell-based
[5] = NIH-3T3 fibroblast cytotoxicity, dose response, cytotoxicity control, cell-based, fluorescence, Alamar Blue, secondary assay (AID 2327); format: functional;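 further: NIH-3T3 mouse fibroblasts cultured with fluconazole at 8 µg/mL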
[6] = cells; format: functional
[7] = test system: Streptococcus sp. 'group A'; assay: growth inhibition of control SK(-) GAS strain, dose response, counter-screen for streptokinase expression inhibitor project, luminescence, kanamycin, BacTiterGlo, confirmation (AID 1900); format: functional, organism-based
[8] = test system: Streptococcus; assay: Group A Streptococcus viability loss, dose response, counter-screen for streptokinase expression inhibitor project, luminescence, BacTiterGlo (AID 1915); format: functional, organism-based;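 further: potency for reduction of bacterial viability or growth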
[9] = molecular target: T4, Streptokinase A (Streptococcus pyogenes serotype M1, UniProt P10520); assay: S. pyogenes streptokinase expression inhibitors, potency, dose response, plasminogen activation absorbance, OD405 (AID 1914); format: functional, Streptococcus pyogenes M1 GAS;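 further: secreted streptokinase activity via plasminogen activation per viability signal from cell pellet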
T4 sequence (P10520 whole entry): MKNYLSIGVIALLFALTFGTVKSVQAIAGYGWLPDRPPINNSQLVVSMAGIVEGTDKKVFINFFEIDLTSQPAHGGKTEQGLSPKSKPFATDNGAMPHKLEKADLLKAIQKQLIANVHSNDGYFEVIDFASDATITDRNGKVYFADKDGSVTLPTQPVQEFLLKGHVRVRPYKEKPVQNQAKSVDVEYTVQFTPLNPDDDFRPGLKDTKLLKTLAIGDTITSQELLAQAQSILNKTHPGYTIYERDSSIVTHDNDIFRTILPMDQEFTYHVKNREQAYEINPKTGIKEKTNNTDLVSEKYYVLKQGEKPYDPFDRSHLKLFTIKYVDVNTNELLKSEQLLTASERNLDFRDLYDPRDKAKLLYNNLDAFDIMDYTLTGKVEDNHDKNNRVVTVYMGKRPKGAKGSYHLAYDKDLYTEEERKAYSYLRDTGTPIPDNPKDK

[10] = cytotoxicity in OVCAR8 ovarian cancer cells, dose response, PAX8 project, cell-based, plate reader, dry powder samples (AID 743197); format: functional; details: OVCAR-8
[11] = NIH:OVCAR-3 ovarian cancer cell cytotoxicity, dose response, PAX8 inhibitor project, plate reader, dry powder samples (AID 743044); format: functional, cell-based
[12] = molecular target: Paired box protein Pax-8 (Homo sapiens, UniProt Q06710); assay: inhibitors of PAX8-driven TPO luciferase reporter, dose response, RMG-I cells, cherry-pick (AID 687027); format: functional, cell-based;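 further: luciferase reporter driven by Pax8 target thyroperoxidase promoter measured by SteadyGlo luminescence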
[13] = molecular target: T5, Corticotropin-releasing factor receptor 2/Corticotropin-releasing factor-binding protein (Homo sapiens, UniProt P24387+Q13324); assay: Dose Response confirmation of uHTS hits for small molecule antagonists of the CRF-binding protein and CRF-R2 receptor complex.; format: functional; details: read-out: IC50_Mean
T5 sequence (Q13324 whole entry): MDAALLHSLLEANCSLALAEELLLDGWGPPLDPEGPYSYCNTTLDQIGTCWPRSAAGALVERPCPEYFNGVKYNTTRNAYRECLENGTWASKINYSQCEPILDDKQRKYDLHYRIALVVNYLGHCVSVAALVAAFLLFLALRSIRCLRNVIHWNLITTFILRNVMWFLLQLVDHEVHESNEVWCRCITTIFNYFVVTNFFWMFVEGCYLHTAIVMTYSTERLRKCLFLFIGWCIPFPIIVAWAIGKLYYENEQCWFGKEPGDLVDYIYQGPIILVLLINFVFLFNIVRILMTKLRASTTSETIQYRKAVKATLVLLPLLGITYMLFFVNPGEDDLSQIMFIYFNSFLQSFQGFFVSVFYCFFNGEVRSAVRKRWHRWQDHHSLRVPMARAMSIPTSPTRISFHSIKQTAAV
T5 sequence (P24387 whole entry): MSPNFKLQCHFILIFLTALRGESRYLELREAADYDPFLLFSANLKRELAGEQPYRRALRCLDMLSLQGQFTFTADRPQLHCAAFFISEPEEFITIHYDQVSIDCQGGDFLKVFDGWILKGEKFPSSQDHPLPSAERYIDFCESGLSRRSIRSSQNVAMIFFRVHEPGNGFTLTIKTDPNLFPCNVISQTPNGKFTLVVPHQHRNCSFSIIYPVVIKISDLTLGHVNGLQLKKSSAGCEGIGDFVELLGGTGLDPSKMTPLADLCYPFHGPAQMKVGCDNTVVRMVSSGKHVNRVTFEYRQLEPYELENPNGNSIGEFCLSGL

[14] = molecular target: T5, Corticotropin-releasing factor receptor 2/Corticotropin-releasing factor-binding protein; assay: activators of CRF receptor 2 with binding protein – uHTS hits, confirmation (AID 602473); format: functional; details: read-out: EC50_Mean
[15] = test system: Vero; assay: cells; format: functional; details: Chlorocebus sabaeus
[16] = inhibitors of HIV Env-driven cell fusion, dose response, cherry-pick (AID 652057); format: functional, cell-based
[17] = inhibitors of clade B AD8 Env fusion, dose response, cell-based, cherry-pick (AID 652062); format: functional;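 further: luciferase signal from cell-cell fusion driven by HIV-1 clade B AD8 Env; potency is for inhibitors of fusion seen as a drop in luminescence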

Sequence of Paired box protein Pax-8 (Q06710 whole entry): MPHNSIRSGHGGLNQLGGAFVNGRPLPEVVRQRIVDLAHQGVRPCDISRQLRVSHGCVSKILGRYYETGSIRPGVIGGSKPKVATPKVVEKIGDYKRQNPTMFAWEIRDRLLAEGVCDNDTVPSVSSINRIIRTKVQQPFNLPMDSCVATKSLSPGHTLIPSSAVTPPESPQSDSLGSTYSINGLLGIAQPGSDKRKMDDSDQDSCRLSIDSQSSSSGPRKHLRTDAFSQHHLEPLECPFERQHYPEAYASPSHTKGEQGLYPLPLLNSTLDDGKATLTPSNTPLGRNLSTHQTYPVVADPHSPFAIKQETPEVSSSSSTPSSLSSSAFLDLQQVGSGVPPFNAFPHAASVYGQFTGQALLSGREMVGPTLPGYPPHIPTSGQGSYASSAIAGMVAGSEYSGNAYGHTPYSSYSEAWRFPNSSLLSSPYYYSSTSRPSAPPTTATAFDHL

Compound: CN/C(=C\[N+](=O)[O-])NCCSCc1ccc(CN(C)C)o1 [RANITIDINE HYDROCHLORIDE]
- AC50 [1]: 11.8 µM (active)

Compound: Fc1ccc(-c2cnc(-c3cccs3)o2)cc1
- IC50 [2]: 24 µM (active)

Compound: Fc1cc(Cl)cc2ccc(-c3ccccc3)nc12
- IC50 [2]: 45.2 µM (active)

Compound: CC[N+](CC)(CC)CCCCOc1ccc2c(c1)C(=O)c1cc(OCCCC[N+](CC)(CC)CC)ccc1-2
- AC50 [1]: 0.506 µM (active)
- IC50 [3]: 221 µM (active)

Compound: Cc1ccsc1C(=O)OCC(=O)Nc1nnc(-c2ccccc2)o1
- EC50 [4]: 3.98 µM (active)
- EC50 [5]: > 160 µM (inactive)
- IC50 [6]: 15.1 µM (active)

Compound: O=C(OCC(=O)N1CCN(c2ccccc2)CC1)c1ccc(Cl)cc1[N+](=O)[O-]
- IC50 [6]: > 50 µM (active)

Compound: O=C(Nc1nnc(-c2ccc(Br)cc2)o1)c1ccco1
- EC50 [7]: 3.78 µM (active)
- IC50 [6]: 3.95 µM (active)
- EC50 [8]: 13.7 µM (active)
- EC50 [9]: > 150 µM (not active)

Compound: Cn1ccs/c1=N\C(=O)c1ccc(OC(F)(F)F)cc1
- IC50 [2]: 29.8 µM (active)

Compound: Cc1cc(N2CCN(C)CC2)nc2ccc(NC(=S)N3CCCCC3)cc12
- AC50 [1]: 10.9 µM (active)

Compound: Cc1ccc(OC(=O)N(C)C[C@@H]2OCc3ccccc3-c3c(n(C)c4ccccc34)C(=O)N([C@@H](C)CO)C[C@H]2C)cc1
- AC50 [10]: > 70 µM (inactive)
- AC50 [11]: 39.9 µM (active)
- AC50 [12]: 4.78 µM (active)

Compound: Cc1ccc(/C=N/NC(=S)Nc2cccc(S(=O)(=O)N(C)C)c2)o1
- IC50 [13]: > 47.1 µM (inactive)
- EC50 [14]: > 53 µM (inactive)
- CC50 [15]: > 25 µM (active)

Compound: CC(C)CC#Cc1ccc2c(c1)O[C@@H](CN(C)S(=O)(=O)c1ccc(F)cc1)[C@H](C)CN([C@@H](C)CO)S2(=O)=O
- AC50 [16]: 30.8 µM (active)
- AC50 [17]: 44.9 µM (active)
- AC50 [10]: 61 µM (active)
- AC50 [12]: 9.45 µM (active)

Compound: COC(=O)CN1C(=S)N(c2ccc(OC)cc2)C(=O)/C1=C/c1ccc(N2CCOCC2)cc1
- IC50 [2]: > 100 µM (inactive)

Compound: CN1CCN(C2Cc3ccc(Cl)cc3Sc3ccc(F)cc32)CC1 (stereo not given)
- EC50 [7]: 4.95 µM (active)
- AC50 [1]: 14.1 µM (active)
- EC50 [8]: 11.9 µM (active)
- EC50 [9]: > 150 µM (not active)
